Holding throughout (assay type): cell-based
Assay [1] deals with alpha-smooth muscle actin (α-SMA). Kind of assay: Inhibition of TGF-β induced expression of alpha-smooth muscle actin (α-SMA) in CFSC cells (western blot). Conditions: compound at 10 μM, TGF-β (10 ng/mL), 24 hours, band intensity vs TGF-β only. As for the experimental part:
The ability of a compound to inhabit the TGF-β induced expression of alpha-smooth muscle actin (α-SMA) was evaluated in CCl4-treated fat storing (CFSC) cells. α-SMA is considered as a reliable marker of hepatic stellate cell activation and a key biomarker for liver fibrosis.
CFSC cells maintained in a DMEM medium supplemented with 10% fetal bovine serum were seeded to 12-well culture dishes and grown to a confluence of 60-70% the next day. Culture was changed to a serum-free DMEM medium, and the cells were treated with a compound at 10 μM in the presence of TGF-β (10 ng/mL). The cells were incubated for another 24 hours. All culture was maintained at 37° C. in 5% carbon dioxide.
An NP-40 lysate solution (50 mM Tris (pH 7.4), 150 mM NaCl, 1% NP-40) with EDTA free cocktail added was used to lyse the cells on ice for 30 min. The lysate was collected and centrifuged at 4° C. for 10 min at 12,000 rpm. The pellet was discarded and the supernatant was transferred to a new tube. Cell lysates were loaded with 5× loading buffer and boiled for 10 min, resolved by 10% SDS-polyacrylamide gel electrophoresis (SDS-PAGE), and transferred to PVDF membrane. The membrane was blocked with 5% skim milk in Tris-buffered saline and TWEEN® 20 (TBST; 10 mM Tris-HCl (pH 8.0), 150 mM NaCl, 0.1% TWEEN® 20) for 1 h at room temperature and then incubated with α-SMA and β-actin antibodies overnight at 4° C. After washing twice with TBST, the membrane was probed with a horseradish […] anti-immunoglobulin (1:5000 dilution) for 1 h at room temperature. After two subsequent rinses in TBST, immunoreactive products were reacted with ECL and visualized by a UVP CHEMSTUDIO™ imaging system. The western blotting bands are quantitated using an ImageJ software. The percentage of inhibition was obtained by calculating the percentage decrease in the band intensity compared to the one treated with TGF-β only.
The results are summarized in Table 1, where A represents a value no less of 80% inhibition, B represents a value less than […] but no less than […], C represents a value less than 50% but no less than 30% inhibition, and D represents a value less than 30% inhibition with a compound at 10 μM.
Background: A western blot detects proteins with antibodies after separation by electrophoresis.

Assay [2] has as its system MDA-MB-231 (breast cancer). Kind of assay: Antiproliferative activity (CCK-8 cell viability), MDA-MB-231. The settings on record: Homo sapiens, 72 h, read-out: Antiproliferative activity in cancerous cells, MDA-MB-231 (inhibition of cell growth); for inhibition at 3.3 µM: Compound concentration: 3.3 μM; for inhibition at 10 µM: Compound concentration: 10 μM; for inhibition at 30 µM: Compound concentration: 30 μM. The method in brief:
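In this CCK-8 viability assay, MDA-MB-231 cells maintained in Dulbecco's modified Eagle's medium containing 10% fetal bovine serum were placed in 96-well plates (2,000-5,000 cells/well) and treated with compound for 72 h at 37° C. A 4 h incubation with 10 μL CCK-8 followed, plates were read at 450 nm, and viability was expressed against DMSO vehicle wells across replicates.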

The test system of assay [3] is HepG2 (liver cancer). Kind of assay: Antiproliferative activity (CCK-8 cell viability), HepG2. Conditions: Homo sapiens, 72 h, read-out: Antiproliferative activity in cancerous cells, HepG2 (inhibition of cell growth); for inhibition at 3.3 µM: Compound concentration: 3.3 μM; for inhibition at 10 µM: Compound concentration: 10 μM; for inhibition at 30 µM: Compound concentration: 30 μM. An outline of the steps: (§1)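 Cells were seeded at 2,000-5,000/well (HeLa in MEM, HepG2 and SW480 in DMEM, A549 in F-12K, all with 10% FBS) and treated with compound at 3.3, 10 or 30 μM for 72 h at 37° C. CCK-8 was added for 4 h, absorbance was read at 450 nm, and viability was expressed relative to DMSO-treated wells.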

The subject of assay [4] is SW480 (colon cancer). Kind of assay: Antiproliferative activity (CCK-8 cell viability), SW480. The settings on record: Homo sapiens, 72 h, read-out: Antiproliferative activity in cancerous cells, SW480 (inhibition of cell growth); for inhibition at 3.3 µM: Compound concentration: 3.3 μM; for inhibition at 10 µM: Compound concentration: 10 μM; for inhibition at 30 µM: Compound concentration: 30 μM. The method in brief: as §1

Assay [5] relates to B16F10 (malignant melanoma). Kind of assay: Antiproliferative activity (CCK-8 cell viability), B16F10. The settings on record: Mus musculus, 72 h, read-out: Antiproliferative activity in cancerous cells, B16F10 (inhibition of cell growth); for inhibition at 3.3 µM: B16-F10, Compound concentration: 3.3 μM; for inhibition at 10 µM: B16-F10, Compound concentration: 10 μM; for inhibition at 30 µM: B16-F10, Compound concentration: 30 μM. The method in brief:
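Attached B16F10 cells in 96-well plates were incubated with compound at 37° C for 72 h, followed by 10 μL CCK-8 reagent per well and a further 4 h incubation. A multi-well plate reader measured absorbance at 450 nm. Percent viability across replicates was calculated against DMSO vehicle-treated cells.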

Assay [6] deals with A431 (epidermoid carcinoma). The experiment in a line: Antiproliferative activity (CCK-8 cell viability), A431. The settings on record: Homo sapiens, 72 h, read-out: Antiproliferative activity in cancerous cells, A431 (inhibition of cell growth); for inhibition at 3.3 µM: A-431, Compound concentration: 3.3 μM; for inhibition at 10 µM: A-431, Compound concentration: 10 μM; for inhibition at 30 µM: A-431, Compound concentration: 30 μM. The method in brief: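 Cell viability of compound-treated A431 cells was measured with a Cell Counting Kit-8. Each well received 10 μL of CCK-8 after 72 h of compound exposure, followed by 4 h incubation at 37° C. and a 450 nm plate-reader measurement. Percent viability was calculated relative to DMSO controls across replicates.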

Assay [7] concerns A549 (lung adenocarcinoma). Kind of assay: Antiproliferative activity (CCK-8 cell viability), A549. The settings on record: Homo sapiens, 72 h, read-out: Antiproliferative activity in cancerous cells, A549 (inhibition of cell growth); for inhibition at 3.3 µM: Compound concentration: 3.3 μM; for inhibition at 10 µM: Compound concentration: 10 μM; for inhibition at 30 µM: Compound concentration: 30 μM. The method in brief:
as §1

Assay [8] has as its system HeLa (cervical cancer). Kind of assay: Antiproliferative activity (CCK-8 cell viability), HeLa. The settings on record: Homo sapiens, 72 h, read-out: Antiproliferative activity in cancerous cells, HELA (inhibition of cell growth); for inhibition at 3.3 µM: Compound concentration: 3.3 μM; for inhibition at 10 µM: Compound concentration: 10 μM; for inhibition at 30 µM: Compound concentration: 30 μM. The method in brief:
as §1

Consider six molecules from US20260184663A1, “INDENE COMPOUNDS, PHARMACEUTICAL COMPOSITIONS THEREOF, AND THEIR THERAPEUTIC APPLICATIONS” (NucMito Pharmaceuticals co. Ltd., priority 2022, published 2026).

Some results are limits rather than exact numbers.

Broadly, the inhibition is the percentage by which the read-out fell short of the control. In the case of `CC1=C(CCO)c2cc(F)ccc2/C1=C\c1cccc(Oc2ccccc2)c1` [A202, (Z)-2-(5-Fluoro-2-methyl-1-(3-phenoxybenzylidene)-1H-inden-3-yl)ethan-1-ol], in assay [1], the inhibition at 10 µM is < 30%.
Turning to `CC1=C(CC(=O)O)c2cc(F)ccc2/C1=C\c1ccc(COc2ccc(F)cc2)cc1F` [B23, (Z)-2-(5-Fluoro-1-(2-fluoro-4-((4-fluorophenoxy)methyl)benzylidene)-2-methyl-1H-inden-3-yl)acetic acid], the inhibition at 10 µM in assay [1] is 50 to 80%.
Take `CC1=C(CC(=O)O)c2c(Cl)cc(Cl)cc2/C1=C/c1ccc(Oc2ccc(F)cc2)cc1` [E33, (E)-2-(4,6-Dichloro-1-(4-(4-fluorophenoxy)benzylidene)-2-methyl-1H-inden-3-yl)acetic acid]: the inhibition at 3.3 µM in assay [2] is < 30%; in assay [3], < 30%; in assay [4], < 30%; in assay [5] it was ≥ 50%; in assay [6], ≥ 50%; in assay [7], < 30%. The inhibition at 3.3 µM in assay [8] was 30 to 50%. In addition, the inhibition at 10 µM is ≥ 50% in assay [2]; ≥ 50% in assay [3]; 30 to 50% in assay [4]; ≥ 50% in assay [5]; ≥ 50% in assay [6]; ≥ 50% in assay [7]. Besides, the inhibition at 10 µM in assay [8] is ≥ 50%. Further, the inhibition at 30 µM in assay [2], in assay [3], in assay [4], in assay [5], in assay [6] and in assay [7] was ≥ 50% each time. Moreover, in assay [8], the inhibition at 30 µM was ≥ 50%.
In the case of `CC1=C(CC(=O)O)c2cc(F)ccc2/C1=C/c1ccc(CO)cc1` [E40, (E)-2-(5-Fluoro-1-(4-(hydroxymethyl)benzylidene)-2-methyl-1H-inden-3-yl)acetic acid], the inhibition at 3.3 µM in assay [2], in assay [3], in assay [4], in assay [5], in assay [6] and in assay [7] was < 30% each time. For the same molecule, the inhibition at 3.3 µM in assay [8] was < 30%. In addition, the inhibition at 10 µM in assay [2] was ≥ 50%; in assay [3], < 30%; in assay [4] it was ≥ 50%; in assay [5] it was < 30%; in assay [6] it was ≥ 50%; in assay [7] it was ≥ 50%. The inhibition at 10 µM in assay [8] is < 30%. The inhibition at 30 µM is ≥ 50% in assay [2]; < 30% in assay [3]; ≥ 50% in assay [4]; 30 to 50% in assay [5]; ≥ 50% in assay [6]; ≥ 50% in assay [7]. Further, the inhibition at 30 µM in assay [8] is ≥ 50%.
With `CC1=C(CC(=O)O)c2cc(Cl)ccc2/C1=C/c1ccc(Oc2ccc(F)cc2)cc1` [E41, (E)-2-(5-Chloro-1-(4-(4-fluorophenoxy)benzylidene)-2-methyl-1H-inden-3-yl)acetic acid], the inhibition at 3.3 µM in assay [2] was < 30%; in assay [3], < 30%; in assay [4], 30 to 50%; in assay [5], < 30%; in assay [6] it was ≥ 50%; in assay [7] it was < 30%. Moreover, the inhibition at 3.3 µM in assay [8] is < 30%. Further, the inhibition at 10 µM was ≥ 50% in assay [2]; ≥ 50% in assay [3]; ≥ 50% in assay [4]; ≥ 50% in assay [5]; ≥ 50% in assay [6]; 30 to 50% in assay [7]. In assay [8], the inhibition at 10 µM is ≥ 50%. Besides, the inhibition at 30 µM in assay [2], in assay [3], in assay [4], in assay [5], in assay [6] and in assay [7] was ≥ 50% each time. Moreover, the inhibition at 30 µM in assay [8] was ≥ 50%.
For the molecule `CC1=C(CC(=O)O)c2cc(F)ccc2/C1=C/c1ccc(Oc2ccc(Cl)cc2)cc1` [E42, (E)-2-(1-(4-(4-Chlorophenoxy)benzylidene)-5-fluoro-2-methyl-1H-inden-3-yl)acetic acid], the inhibition at 3.3 µM in assay [2] is < 30%; in assay [3] it was < 30%; in assay [4], 30 to 50%; in assay [5], < 30%; in assay [6], ≥ 50%; in assay [7] it was < 30%. In assay [8], the inhibition at 3.3 µM lay in the range of 30 to 50%. Further, the inhibition at 10 µM was < 30% in assay [2]; 30 to 50% in assay [3]; ≥ 50% in assay [4]; 30 to 50% in assay [5]; ≥ 50% in assay [6]; 30 to 50% in assay [7]. Further, in assay [8], the inhibition at 10 µM is ≥ 50%. Moreover, the inhibition at 30 µM in assay [2], in assay [3], in assay [4], in assay [5], in assay [6] and in assay [7] was ≥ 50% throughout. For the same molecule, in assay [8], the inhibition at 30 µM was ≥ 50%.
